The values that follow come from patent publication US10793531B2, “Triazole derivatives and their use as PDE4 activators” (MIRONID LIMITED, priority 2015, dated 2020).

One experiment concerns the target T1, full-length human PDE4D5 (Homo sapiens, UniProt Q08499).
T1 construct: stably expressed the full-length human PDE4D5, PDE4A4 and PDE4B1 long isoforms; made in house; cytosol fraction of the lysate
As to the kind of experiment: PDE4 radio-assay, PDE4D5 long form activation (Experiment 1). The class given is biochemical. Particulars: n ≥ 2, read-out: PDE4D5 activity (mean % increase in counts over basal activity without added compound); for activation at 1 µM: 1 μM compound; for activation at 3 µM: 3 μM compound; for activation at 10 µM: 10 μM compound; for activation at 30 µM: 30 μM compound; for activation at 50 µM: 50 μM compound. As for the experimental part:
(§1) One suitable method of detecting whether or not a compound is capable of serving as an activator of a PDE4 long form is using a two-step radio-assay procedure described in Experiment 1. In summary, the method involves incubating a PDE4 long form with a test small molecule activator, together with [^3H]-labelled cAMP to assess alterations in the breakdown of cAMP to the 5′-adenosine monophosphate (5′-AMP) product. A sample of the reaction mixture from such an incubation is subsequently treated with snake venom 5′-nucleotidase to allow conversion of the nucleotide [^3H]-labelled 5′-AMP to the uncharged nucleoside [^3H]-labelled adenosine, which can be separated and quantified to assess PDE4 activity and the effect of the test compound (Thompson, W. J. and Appleman, M. M. Biochemistry 10: 311-316, 1971, with some modifications as described in: Marchmont, R. J. and Houslay, M. D. Biochem J. 187: 381-92, 1980).
(§2) HEK 293 cells were transfected with pDEST™ PDE4 expression vectors using Lipofectamine LTX/Plus reagent (Invitrogen) as outlined by the manufacturer and clonal isolates expanded to obtain cell lines that stably expressed the full-length human PDE4D5, PDE4A4 and PDE4B1 long isoforms and the full length human PDE4B2 short isoform. These were called the HEK-PDE4D5, HEK-PDE4A4, HEK-PDE4B1 and HEK-PDE4B2 cell lines, respectively.
(§3) HEK-PDE4D5 cells were seeded out in 100 mm plates and incubated at 37° C. in an atmosphere of 5% CO2, 95% air. Cell lysates were prepared using KHEM buffer [50 mM KCl, 10 mM EGTA, 50 mM HEPES (pH 7.2), 1.92 mM MgCl2].
(§4) To prepare the cell lysates, the 100 mm plates containing the cells were placed on ice and washed with ice-cold PBS (phosphate buffered saline, pH 7.4). KHEM buffer (500 μl) was added to the cells. Cells were then scraped off the plate and triturated using a needle (BD Microlance™ 0.8, 40 mm). The lysed cells were then centrifuged at 2000 rpm for 10 minutes to remove cell debris and the supernatant (cell lysate containing recombinant PDE4D5) was transferred to a fresh tube and kept on ice.
(§5) The cell lysate containing recombinant PDE4D5 was transferred into a centrifuge tube and placed into an ultracentrifuge (BECKMAN COULTER) and spun at high speed (100,000 g) for 30 minutes at 4° C. The cytosol fraction was then collected and its protein amount determined using a BCA protein assay.
PDE assays were performed using a final concentration of 10 mM Tris/5 mM MgCl2 and 1 μM [3H]-cAMP (Perkin Elmer) plus PDE4D5 cell lysate cytosol fraction, containing over-expressed PDE4D5, with and without test compound. Incubations were performed at 30° C. for 5 minutes. The samples were then placed in a boiling water bath for 2 minutes to denature the PDE enzyme, and returned to ice. Samples were allowed to cool for 1.0 min after which snake venom 5′-nucleotidase (25 μl, 1 mg/ml; Sigma) was added. The tubes were vortexed and incubated in a water bath at 30° C. for 10 minutes, to attain conversion of [3H]-5′-AMP to [3H]-adenosine, and then placed on ice. Dowex ion exchange resin (Sigma) prepared as a 1:1 Dowex:water stock was thoroughly re-suspended and diluted 2:1 with ethanol. The resulting Dowex suspension (0.4 ml) was added to each tube. Tubes were vortexed to mix and then incubated on ice for at least 15 minutes before a final vortex. The Dowex resin was pelleted by centrifugation at 13,000 g at 4° C. for 3 minutes and 150 μl of the supernatant was removed to an Eppendorf tube containing 1 ml of ScintiSafe3 scintillation fluid (Fisher). Tubes were vortexed thoroughly to mix and the recovered [3H]-adenosine was quantified by measuring counts over 1 minute in a scintillation counter.

In experiment [1] the target is T2, full length human PDE4B2 short isoform (Homo sapiens, UniProt Q07343).
T2 construct: the full length human PDE4B2 short isoform; made in house; cytosol fraction of the lysate
As to the kind of experiment: PDE4 radio-assay, PDE4B2 short form (Experiment 1). The experiment is classed as biochemical. Particulars: method of Experiment 1; FIG. 4. As for the experimental part:
as §1, §2, §3, §4, §5
PDE assays were performed using a final concentration of 10 mM Tris/5 mM MgCl2 and 1 μM [3H]-cAMP (Perkin Elmer) plus PDE4D5 cell lysate cytosol fraction, containing over-expressed PDE4D5, with and without test compound. Incubations were performed at 30° C. for 5 minutes. […] Tubes were vortexed thoroughly to mix and the recovered [3H]-adenosine was quantified by measuring counts over 1 minute in a scintillation counter.

A further experiment relates to MDCK cells. Kind of experiment: Reduction of intracellular cAMP levels in forskolin stimulated MDCK cells (Experiment 2). The class given is cell-based, canine. Particulars: 10 μM compound for 10 min prior to forskolin (10 μM) for 2 min; FIG. 6. As for the experimental part:
HEK 293 and MDCK cells (Public Health England, Cell Culture Collections) were maintained in DMEM supplemented with 10% (v/v) fetal bovine serum (Seralab), 2 mM L-glutamine, 1,000 U penicillin and 1,000 μg streptomycin (Life Technologies); termed complete media. Clonal HEK 293 cell lines were maintained in complete media supplemented with 0.6 mg/mL G418 (Enzo Life Sciences).
HEK 293 or MDCK cells were seeded at 100,000 cells per well, and left to adhere overnight. The cells were then treated with the compound indicated (10 μM) for 10 minutes, prior to stimulation with forskolin (10 μM, Sigma) for 2 minutes. Media was aspirated, and hydrochloric acid (0.1M) was added to lyse the cells. The cAMP assay (Enzo Life Sciences) was performed according to the manufacturers instructions.
(In general: cAMP levels reflect the balance of adenylyl cyclase and phosphodiesterase activity.)

T2 sequence (Q07343 1-564 isoform Q07343-2): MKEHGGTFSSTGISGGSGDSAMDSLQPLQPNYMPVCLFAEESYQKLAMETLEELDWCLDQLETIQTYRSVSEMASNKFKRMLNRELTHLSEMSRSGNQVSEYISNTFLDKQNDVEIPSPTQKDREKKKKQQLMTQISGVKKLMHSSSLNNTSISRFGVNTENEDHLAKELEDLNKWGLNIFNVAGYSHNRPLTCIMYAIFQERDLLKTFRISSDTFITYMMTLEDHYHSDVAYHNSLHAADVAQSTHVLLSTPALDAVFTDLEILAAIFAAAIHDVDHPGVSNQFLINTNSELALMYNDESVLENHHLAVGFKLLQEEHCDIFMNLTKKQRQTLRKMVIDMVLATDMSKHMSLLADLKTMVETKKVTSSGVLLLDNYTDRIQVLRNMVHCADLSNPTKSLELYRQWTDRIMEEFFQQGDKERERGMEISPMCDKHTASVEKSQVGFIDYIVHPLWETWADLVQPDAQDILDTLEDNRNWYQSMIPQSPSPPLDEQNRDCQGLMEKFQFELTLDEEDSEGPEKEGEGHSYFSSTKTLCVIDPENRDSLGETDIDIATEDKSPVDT
T1 sequence (Q08499 1-745 isoform Q08499-6): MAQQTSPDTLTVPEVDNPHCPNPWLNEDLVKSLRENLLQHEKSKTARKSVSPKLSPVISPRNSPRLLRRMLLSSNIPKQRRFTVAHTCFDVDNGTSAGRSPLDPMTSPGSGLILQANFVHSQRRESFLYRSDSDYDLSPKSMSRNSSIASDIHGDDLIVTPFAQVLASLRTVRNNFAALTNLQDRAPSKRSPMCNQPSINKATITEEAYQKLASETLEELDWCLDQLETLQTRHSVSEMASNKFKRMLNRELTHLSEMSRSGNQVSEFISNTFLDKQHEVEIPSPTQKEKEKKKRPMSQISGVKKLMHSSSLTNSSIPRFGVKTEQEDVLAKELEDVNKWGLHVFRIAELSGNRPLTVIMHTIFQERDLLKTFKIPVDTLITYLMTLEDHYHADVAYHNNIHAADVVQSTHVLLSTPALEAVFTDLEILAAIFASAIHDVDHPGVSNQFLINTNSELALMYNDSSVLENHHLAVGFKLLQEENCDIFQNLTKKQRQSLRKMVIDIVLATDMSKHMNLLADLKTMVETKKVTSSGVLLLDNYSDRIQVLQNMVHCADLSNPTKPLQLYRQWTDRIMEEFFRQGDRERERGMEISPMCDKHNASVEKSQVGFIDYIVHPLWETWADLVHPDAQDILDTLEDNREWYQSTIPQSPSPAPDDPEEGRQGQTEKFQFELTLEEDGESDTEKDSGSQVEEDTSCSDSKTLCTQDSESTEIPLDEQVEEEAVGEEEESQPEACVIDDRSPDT

In the case of `COCc1nc(-c2ccc(Cl)cc2)nn1CC(=O)NCc1ccccc1` [Example B, N-Benzyl-2-[3-(4-chlorophenyl)-5-methoxymethyl-1H-1,2,4-triazol-1-yl]acetamide], at full-length human PDE4D5, the activation at 1 µM was 7.2%, the activation at 3 µM amounted to 0.4%, the activation at 10 µM amounted to 21.9% and the activation at 30 µM was determined as 64.6%. On full-length human PDE4D5, the activation at 50 µM was 114%. In experiment [1], the “activation of PDE4B2, a short form of PDE4 (in words)” value (“activation of PDE4B2” below) is reported as “lack of activation”.

For the compound `Cc1nc(-c2ccc(Cl)cc2)nn1CC(=O)NCc1ccccc1` [Example C, N-Benzyl-2-[3-(4-chlorophenyl)-5-methyl-1H-1,2,4-triazol-1-yl]acetamide], the activation at 50 µM at full-length human PDE4D5 was 119%. In addition, the “intracellular cAMP levels in MDCK cells (in words)” value in the experiment on MDCK cells is recorded as “reduction in intracellular cAMP levels”.

Regarding `COCc1nc(-c2ccc(OC(F)(F)F)cc2)nn1CC(=O)NCc1cccc(F)c1` [Example D, N-(3-Fluorobenzyl)-2-{3-[4-(trifluoromethoxy)phenyl]-5-methoxymethyl-1H-1,2,4-triazol-1-yl}acetamide], at full-length human PDE4D5, the activation at 1 µM was 52.6%, the activation at 3 µM came to 30.6%, the activation at 10 µM amounted to 51.6% and the activation at 30 µM was determined as 126%. Further, at full-length human PDE4D5, the activation at 50 µM was 196%. In the experiment with MDCK cells, the “intracellular cAMP levels in MDCK cells (in words)” value is recorded as “reduction in intracellular cAMP levels”. Moreover, the “activation of PDE4B2” value in experiment [1] is recorded as “lack of activation”.

As for `CCc1nc(-c2ccc(Cl)c(F)c2)nn1CC(=O)NCc1cccc(Cl)c1` [Example E, N-(3-Chlorobenzyl)-2-[3-(4-chloro-3-fluorophenyl)-5-ethyl-1H-1,2,4-triazol-1-yl]acetamide], the activation at 50 µM at full-length human PDE4D5 was determined as 71.1%.

As for `CCc1nc(-c2ccc(Cl)c(F)c2)nn1CC(=O)NCc1cccc(C#N)c1` [Example F, N-(3-Cyanobenzyl)-2-[3-(4-chloro-3-fluorophenyl)-5-ethyl-1H-1,2,4-triazol-1-yl]acetamide], on full-length human PDE4D5, the activation at 50 µM was 107%.

As for `CCc1nc(-c2ccc(Cl)c(F)c2)nn1CC(=O)NCc1cccc(C(F)(F)F)c1` [Example G, N-[3-(Trifluoromethyl)benzyl]-2-[3-(4-chloro-3-fluorophenyl)-5-ethyl-1H-1,2,4-triazol-1-yl]acetamide], the activation at 50 µM on full-length human PDE4D5 was found to be 171%.

In the case of `CCc1nc(-c2ccc(Cl)c(F)c2)nn1CC(=O)NCc1cccc(OC)c1` [Example H, N-(3-Methoxybenzyl)-2-[3-(4-chloro-3-fluorophenyl)-5-ethyl-1H-1,2,4-triazol-1-yl]acetamide], the activation at 50 µM on full-length human PDE4D5 stood at 136%.

On to `CCc1nc(-c2ccc(Cl)c(F)c2)nn1CC(=O)NCc1cccc(OC(F)(F)F)c1` [Example I, N-[3-(Trifluoromethoxy)benzyl]-2-[3-(4-chloro-3-fluorophenyl)-5-ethyl-1H-1,2,4-triazol-1-yl]acetamide], for which the activation at 50 µM at full-length human PDE4D5 stood at 92.1%.

As to `CCc1nc(-c2ccc(Cl)c(F)c2)nn1CC(=O)NCc1ccccc1F` [Example J, N-(2-Fluorobenzyl)-2-[3-(4-chloro-3-fluorophenyl)-5-ethyl-1H-1,2,4-triazol-1-yl]acetamide], on full-length human PDE4D5, the activation at 50 µM stood at 82.2%.

For `CCc1nc(-c2ccc(Cl)c(F)c2)nn1CC(=O)NCc1ccc(F)cc1` [Example K, N-(4-Fluorobenzyl)-2-[3-(4-chloro-3-fluorophenyl)-5-ethyl-1H-1,2,4-triazol-1-yl]acetamide], at full-length human PDE4D5, the activation at 50 µM amounted to 80.5%.

On to `CCc1nc(-c2ccc(Cl)c(F)c2)nn1CC(=O)NCc1ccc(OC)c(OC)c1` [Example L, N-(3,4-Dimethoxybenzyl)-2-[3-(4-chloro-3-fluorophenyl)-5-ethyl-1H-1,2,4-triazol-1-yl]acetamide], for which, on full-length human PDE4D5, the activation at 1 µM was found to be 26%, the activation at 3 µM was determined as 42.4%, the activation at 10 µM is 79.8% and the activation at 30 µM was 214%. For the same compound, the activation at 50 µM on full-length human PDE4D5 was determined as 251%. Moreover, the “activation of PDE4B2” value in experiment [1] is listed as “lack of activation”.
